In US8039585B2, “Therapeutic administration of the scrambled anti-angiogenic peptide C16Y” (The United States of America as represented by the …, priority 2004, dated 2011):
Ends that are not written are not given here.

Columns and labels:
HUVECs = assay: Endothelial cell tube-forming assay on Matrigel; format: cell-based, human; design: key to Disruption of tube formation / Activity (tube formation, truncated C16Y peptides): +: tubes slightly affected; ++: tubes moderately affected; +++: tubes disrupted; ++++: tubes completely disrupted; −: tubes resemble control; conditions: for Activity (tube formation, truncated C16Y peptides): truncated versions of C16Y, concentration not given; for Disruption of tube formation: 16 hours
Procedure: FIG. 3: Disruption of endothelial cell tube formation by C16Y peptide. 48-well plates were coated with 200 μl of Matrigel per well. Each well was treated with RPMI containing 24,000 human umbilical vein endothelial cells (HUVECS) and 100 mg/L endothelial cell growth factor in the presence of 10-75 μg/ml of C16 or scrambled C16 peptide for 16 hours. Control wells contained medium only. Cells were fixed and stained, and tube formation was scored by a blinded observer.
Tube-forming assays were performed as described previously (Ponce 2001). 48-well plates were coated with 200 μl/well of Matrigel (Gho 2001; Kubota 1988), a basement membrane matrix. HUVECs (24,000 cells/well) were plated in RPMI 1640 containing 10% bovine calf serum, defined and supplemented (HyClone Laboratories, Inc., Logan, Utah), along with 100 mg/liter of endothelial cell growth factor (Collaborative Biomedical). C16 or scrambled C16 peptides were added at concentrations ranging from 10-75 μg/ml. Control wells contained medium only. After 16 hours, cells were fixed and stained with Diff-Quick fixative (methanol) and solution II (6.25% (w/v) each of azure A and methylene blue) (Dade A G, Dudingen, Switzerland), and tube formation was scored by a blinded observer. Each peptide was tested at least in triplicate, and the assays were repeated a minimum of three times.
Tube formation assays were repeated using truncated versions of the C16Y peptide to determine the minimal active sequence of the peptide. The carboxyl end of C16Y was not necessary for activity, whereas the amino terminal aspartic acid was required. The minimal active sequence for the C16Y peptide is shown in SEQ ID NO: 2. Each of the peptides containing at least this 8 amino acid sequence (SEQ ID NOs: 1-5) inhibited tube formation.

[1] = system: human umbilical vein endothelial cells (HUVECs); assay: Endothelial cell adhesion to peptide-coated plates; format: cell-based; conditions: 0-5 μg coated, 1.5 hours
Procedure: FIG. 1: Endothelial cell adhesion by C16 and scrambled C16 peptides. 96-well plates were coated with either laminin-1 (0.5 μg), C16 peptide (0-5 μg), or scrambled C16 peptide (0-5 μg). Each well was rinsed with PBS, blocked with BSA, rinsed again with PBS, and then treated with 0.1 ml of RPMI containing 35,000 human umbilical vein endothelial cells (HUVECs) for 1.5 hours at 37° C. Unbound cells were decanted, and attached cells were stained with crystal violet and quantified by measuring their absorbance at 600 nm. Cells adhered to C16, C16S, and C16Y peptides. More cells adhered to C16Y than to any other peptide at all concentrations tested. Bars represent ±SD.
Endothelial cell adhesion assays were performed on 96-well plates coated overnight with either laminin-1 (0.5 μg) or synthetic laminin peptides C16, C16S, C16J, C16L, or C16Y (0-5 μg) as described previously (Malinda 1999). Wells were rinsed with PBS, blocked with 2 mg/ml of BSA, and rinsed again with PBS. Cell adhesion was performed using 0.1 ml of RPMI 1640 containing 35,000 HUVECs. After a 1.5-hour incubation period at 37° C., unbound cells were decanted and attached cells were fixed and stained with 20% methanol/0.2% crystal violet. Dishes were extensively rinsed, and bound dye was solubilized in 2% SDS and quantitated at 600 nm. Assays were done in triplicate at least three times.

[2] = system: endothelial cell attachment to laminin-1; assay: Competition assay: block of endothelial cell adhesion to laminin-1; format: cell-based, human
Procedure: FIG. 2: Ability of C16 and scrambled C16 peptides to block laminin-1 endothelial cell adhesion. 96-well plates were coated with laminin-1 (0.5 μg) in the presence of competing C16 or scrambled C16 peptides (0-100 μg/ml). Each wells was treated with 0.1 ml of RPMI containing 35,000 human umbilical vein endothelial cells (HUVECs) for 1.5 hours at 37° C. Unbound cells were decanted, and attached cells were stained with crystal violet and quantified by measuring their absorbance at 600 nm. […] Bars represent ±SD.
Competition experiments were done using 96-well plates coated with laminin-1 (0.5 μg) in the presence of 0-100 μg/ml of competing C16, C16S, C16J, C16L, or C16Y synthetic laminin peptide as specified. Control wells were coated with BSA only. Wells were contacted with 0.1 ml of RPMI 1640 containing 35,000 HUVECs. After a 1.5-hour incubation at 37° C., unbound cells were decanted and attached cells were fixed and stained with 20% methanol/0.2% crystal violet. Dishes were extensively rinsed, and bound dye was solubilized in 2% SDS and quantitated at 600 nm. Assays were done in triplicate at least three times.

[3] = system: C16-induced angiogenesis in the chick CAM; assay: CAM assay, C16-induced angiogenesis; format: in vivo
Procedure: FIG. 4: Inhibition of C16-induced angiogenesis by C16Y. 0.5 μg of angiogenic stimulator (C16 peptide) and varying concentrations of either C16S or C16Y peptides were applied to 10-day-old embryonated eggs in 5 μl of water. After 3 days, microphotographs were taken of the eggs to determine angiogenesis levels. Negative control eggs were treated with water only (panel a), while positive control eggs were treated with bFGF only (not shown). As expected, C16 peptide administered alone stimulated angiogenesis (panel d). […] When the amount of inhibitor peptide was lowered to 0.05 μg, C16Y peptide continued to inhibit angiogenesis (panel f), while C16S peptide had no effect (panel c).
The CAM assay was performed using 10-day-old embryonated eggs (CBT, Charlestown, Md.) as described previously (Gho 1999). On embryonal day 3, approximately 4 ml of ovalbumin was removed from each egg. After opening windows on embryonal day 10, the angiogenic stimulus (C16) and test competitor peptides in 5 μl of distilled water were applied to the CAM after drying on 13-mm diameter quartered plastic coverslips (Thermanox; Nalge, NUNC International, Naperville, Ill.). Three days later, the eggs were scored for a positive response and photographed. The positive control was bFGF, and the negative control was the vehicle water. Experiments were repeated twice using a minimum of 11 eggs for each data point.

[4] = system: bFGF-induced angiogenesis; assay: CAM assay, bFGF-induced angiogenesis; format: in vivo, chick; conditions: 50 ng bFGF + 0.05 μg peptide
Procedure: FIG. 5: Inhibition of bFGF-induced angiogenesis by C16Y. 50 ng of angiogenic stimulator (bFGF) and varying concentrations of either C16S or C16Y peptides were applied to 10-day old embryonated eggs in 5 μl of water, and CAMs were analyzed for the presence or absence of angiogenesis.
50 ng of angiogenic stimulator (bFGF) and varying concentrations of either C16S or C16Y peptides were applied to 10-day old embryonated eggs in 5 μl of water, and CAMs were analyzed after 3 days for the presence or absence of angiogenesis.

[5] = Toxicity statement (no method described)
[6] = system: tumor growth and lung colonization; conditions: Fridman 1990; cited from earlier work

With AVYIKYR [truncated version of C16Y] as the substance, how does the “Activity (tube formation, truncated C16Y peptides)” value (HUVECs) read?
Its value is “−”.

Which results are given for “C16J: scrambled peptide of C16 (IKDYLTFARVKF-NH2) [Peptide C16J]”?
Effect on endothelial tube formation (HUVECs): no activity at lower doses and only slight tube disruption at higher concentrations; Disruption of tube formation (HUVECs; peptide concentration 10 μg/ml): −; Disruption of tube formation (HUVECs; peptide concentration 25 μg/ml): −; Disruption of tube formation (HUVECs; peptide concentration 50 μg/ml): −; Disruption of tube formation (HUVECs; peptide concentration 75 μg/ml): −; Endothelial cell adhesion to coated peptide [1]: only weakly bound; Inhibitory activity on laminin-1 cell adhesion ([2]; 0-100 μg/ml competing peptide): little activity at all of the doses tested

Which “Effect on endothelial tube formation” value (HUVECs) does the source give for “C16L: scrambled peptide of C16 (LTFRAKVYFIKD-NH2) [Peptide C16L]” here?
Its value is “no activity at lower doses and only slight tube disruption at higher concentrations”.

What about the “Disruption of tube formation” value (HUVECs; peptide concentration 10 μg/ml) of the same substance?
Its value is “−”.

And the “Disruption of tube formation” value (HUVECs; peptide concentration 25 μg/ml)?
Its value is “−”.

What about the “Disruption of tube formation” value (HUVECs; peptide concentration 50 μg/ml) of the same substance?
The value was “+”.

And the “Disruption of tube formation” value (HUVECs; peptide concentration 75 μg/ml)?
The value was “++”.

And the “Endothelial cell adhesion to coated peptide” value [1]?
Its value is “did not attach”.

And the “Dose showing some inhibition of attachment to laminin-1” value [2]?
The value was over 75 µg/mL.

What does the source list for “C16S: scrambled peptide of C16, created as a negative control, with antagonist activity (KAFDITYVRLKF; Scrambled version of C16 peptide) [Peptide C16S, reference compound]”?
Inhibitory effect on angiogenesis ([3]; 0.5 μg C16 + 0.05 μg inhibitor peptide): no longer generated an inhibitory effect; Reduction in angiogenesis ([3]; 0.5 μg C16 + 0.1 μg inhibitor peptide): 52%; Reduction in angiogenesis ([3]; 0.5 μg C16 + 0.2 μg inhibitor peptide): 63%; Angiogenesis with peptide administered alone ([3]; peptide alone (C16: 0.5 μg)): neither C16Y (FIG. 4, panel e) nor C16S (data not shown) administered alone stimulated angiogenesis; Dose at which tube formation is disrupted (lowest active) (HUVECs; 10-75 μg/ml tested): 50 µg/mL; Disruption of tube formation (HUVECs; peptide concentration 10 μg/ml): −; Disruption of tube formation (HUVECs; peptide concentration 25 μg/ml): −; Disruption of tube formation (HUVECs; peptide concentration 50 μg/ml): +++; Disruption of tube formation (HUVECs; peptide concentration 75 μg/ml): +++; Inhibition of angiogenesis [4]: no ability to inhibit angiogenesis

With DFKLF as the substance, how does the “Activity (tube formation, truncated C16Y peptides)” value (HUVECs) read?
The value was “−”.

With DFKLFA as the substance, how does the “Activity (tube formation, truncated C16Y peptides)” value (HUVECs) read?
The value was “−”.

With DFKLFAV [truncated version of C16Y] as the substance, how does the “Activity (tube formation, truncated C16Y peptides)” value (HUVECs) read?
Its value is “−”.

For DFKLFAVY (DFKLFAVY-NH2), which “Activity (tube formation, truncated C16Y peptides)” value (HUVECs) is on record?
Its value is “++”.

Which “Activity (tube formation, truncated C16Y peptides)” value (HUVECs) does the source give for DFKLFAVYI [truncated version of C16Y] here?
Its value is “++”.

With DFKLFAVYIK [truncated version of C16Y] as the substance, how does the “Activity (tube formation, truncated C16Y peptides)” value (HUVECs) read?
The value was “++”.

Which “Activity (tube formation, truncated C16Y peptides)” value (HUVECs) does the source give for DFKLFAVYIKY [truncated version of C16Y] here?
The value was “++”.

For “DFKLFAVYIKYR-NH2 [Peptide C16Y, DFKLFAVYIKYR]”, which “Toxicity” value [5] is on record?
Its value is “not toxic”.

For DRKL, which “Activity (tube formation, truncated C16Y peptides)” value (HUVECs) is on record?
Its value is “−”.

Which “Activity (tube formation, truncated C16Y peptides)” value (HUVECs) does the source give for FAVYIKYR [truncated version of C16Y] here?
The value was “−”.

With FKLFAVYIKYR [truncated version of C16Y] as the substance, how does the “Activity (tube formation, truncated C16Y peptides)” value (HUVECs) read?
Its value is “−”.

Which “Activity (tube formation, truncated C16Y peptides)” value (HUVECs) does the source give for KLFAVYIKYR [truncated version of C16Y] here?
Its value is “−”.

For LFAVYIKYR [truncated version of C16Y], which “Activity (tube formation, truncated C16Y peptides)” value (HUVECs) is on record?
Its value is “−”.

With “SEQ ID NO: 6: peptide having the fibronectin sequence (residues 1023-1033) of c-elegans (DYKYFAVYYR) [reference compound]” as the substance, how does the “Effect on endothelial tube formation” value (HUVECs) read?
Its value is “no ability to block endothelial tube formation”.

For VYIKYR, which “Activity (tube formation, truncated C16Y peptides)” value (HUVECs) is on record?
The value was “−”.

Which “Activity lower than that of C16Y” value [6] does the source give for YIGSR here?
The value was about 10 fold.

For YIKYR, which “Activity (tube formation, truncated C16Y peptides)” value (HUVECs) is on record?
Its value is “−”.
